Each block holds one compound with its values, some of them ahead of it.
How the values were obtained:
[1] = Aqueous solubility in Tris HCl buffer (pH 7.4), shake flask method; details: 37 °C, pH 7.4, aqueous buffer, thermodynamic from solid
[2] = Chemical stability in neat DMSO (UV spectrophotometer); details: post 24 h of incubation
[3] = Aqueous stability in acidic and basic buffer (HPLC); details: post 24 h of incubation; for chemical stability, pH (3.0): percentage of parent remaining: acidic buffer; for chemical stability, pH (7.6): percentage of parent remaining: basic buffer
[4] = In vivo plasma exposure after repetitive single oral dosing for 10 consecutive days; details: 10th dose, oral, molar equivalent of 10 mg/kg INH
[5] = Bioconversion of prodrugs in plasma, ex vivo (human); details: 200 μg/mL; for eAUC20m–20h in human plasma, prodrug: 20 h ex vivo incubation; for % of prodrug remaining at 20 h, human plasma: 37 °C, ex vivo
[6] = Lipophilicity (logD) by shake flask method
[7] = Bioconversion of prodrugs in plasma, ex vivo (mice); details: 200 μg/mL; for % of prodrug remaining at 20 h, mice plasma: 37 °C, ex vivo; for eAUC20m–20h in mice plasma, prodrug: 20 h ex vivo incubation
[8] = In vivo plasma exposure after a single oral dose (RACE-PK); details: single oral dose 10 mg/kg; for plasma eAUC20m–120m (AcINH) / plasma eAUC20m–120m (INH): n=3
[9] = Stomach homogenate conversion assay; type: in vitro ADME, mice; details: 50 μg/mL; for percentage of prodrug remaining after 20 h of incubation, stomach homogenate: ex vivo
[10] = Intestinal homogenate conversion assay; type: in vitro ADME, mice; details: 50 μg/mL; for percentage of prodrug remaining after 20 h of incubation, intestine homogenate: ex vivo
[11] = Complete pharmacokinetic analysis after a single oral dose; details: for concentration at 0.33 h / concentration at 1 h / concentration at 2 h / concentration at 4 h / concentration at 6 h / concentration at 24 h: Balb/C, mouse, plasma, po, 10 mg/kg of INH (prodrugs at molar equivalent); for plasma concentration of free INH (mean) / plasma concentration of released AcINH (mean) / plasma concentration of released INA (mean) / Vd, unchanged prodrug / plasma level of AcHz formed in vivo: single oral dose; for Vd, unchanged prodrug: molar equivalent of 10 mg/kg INH; for plasma level of AcHz formed in vivo: all time points 0.083–24 h

Compound: CCCCOC(=O)NNC(=O)c1ccncc1.Cl [prodrug 1e]
- solubility at 24 h ([1]; Tris HCl buffer): 49.4 mg/mL
- chemical stability, DMSO: percentage of parent remaining [2]: 100.0%
- chemical stability, pH (3.0): percentage of parent remaining [3]: 100.0%
- chemical stability, pH (7.6): percentage of parent remaining [3]: 100.0%
- eAUC20m–6h (AcHz) [4]: BLQ ^d
- eAUC20m–20h in human plasma, prodrug [5]: 640 ± 116 ng·h/mL
- logD [6]: 0.8
- eAUC20m–20h in mice plasma, prodrug [7]: 180 ± 36 ng·h/mL

Compound: CCCOC(=O)NNC(=O)c1ccncc1.Cl [prodrug 1c]
- solubility at 24 h ([1]; Tris HCl buffer): 86 mg/mL
- chemical stability, DMSO: percentage of parent remaining [2]: 100.0%
- chemical stability, pH (7.6): percentage of parent remaining [3]: 100.0%
- eAUC20m–6h (AcHz) [4]: BLQ ^d
- eAUC20m–20h in human plasma, prodrug [5]: 860 ± 131 ng·h/mL
- plasma concentration of AcINH at 20 min [8]: BLQ
- plasma concentration of in vivo released free INH at 20 min [8]: BLQ
- plasma eAUC20m–120m (AcINH) [8]: BLQ ^d
- plasma eAUC20m–120m (INH) ([8]; 10 mg/kg): BLQ and BLQ ^d
- logD [6]: 0.2
- eAUC20m–20h in mice plasma, prodrug [7]: 551 ± 81 ng·h/mL

Compound: CCOC(=O)NNC(=O)c1ccncc1.Cl [prodrug 1b]
- solubility at 24 h ([1]; Tris HCl buffer): 326 mg/mL
- chemical stability, DMSO: percentage of parent remaining [2]: 100.0%
- chemical stability, pH (7.6): percentage of parent remaining [3]: 100.0%
- eAUC20m–6h (AcHz) [4]: BLQ ^d
- % of prodrug remaining at 20 h, human plasma [5]: 47.5%
- eAUC20m–20h in human plasma, prodrug [5]: 1402 ± 957 ng·h/mL
- plasma concentration of AcINH at 20 min [8]: BLQ
- plasma eAUC20m–120m (AcINH) [8]: BLQ ^d
- logD [6]: -0.01
- % of prodrug remaining at 20 h, mice plasma [7]: 13.8%
- eAUC20m–20h in mice plasma, prodrug [7]: 1214 ± 758 ng·h/mL

Compound: Cl.O=C(NNC(=O)c1ccncc1)Oc1ccccc1 [prodrug 1j]
- solubility at 24 h [1]: 12.4 mg/mL
- chemical stability, DMSO: percentage of parent remaining [2]: 100.0%
- chemical stability, pH (3.0): percentage of parent remaining [3]: 94.6%
- chemical stability, pH (7.6): percentage of parent remaining [3]: 58.2%
- % of prodrug remaining at 20 h, human plasma [5]: below the quantification limit and BLQ
- eAUC20m–20h in human plasma, prodrug [5]: 752 ± 355 ng·h/mL
- plasma concentration of AcINH at 20 min [8]: BLQ
- plasma eAUC20m–120m (AcINH) [8]: BLQ ^d
- logD [6]: 0.9
- % of prodrug remaining at 20 h, mice plasma [7]: 85.5%
- eAUC20m–20h in mice plasma, prodrug [7]: 7347 ± 655 ng·h/mL

Compound: COC(=O)NNC(=O)c1ccncc1.Cl [prodrug 1a]
- solubility at 24 h ([1]; Tris HCl buffer): 213 mg/mL
- eAUC0–20h in stomach homogenate, prodrug [9]: 412,453 ng·h/mL
- percentage of prodrug remaining after 20 h of incubation, stomach homogenate [9]: 1%
- chemical stability, DMSO: percentage of parent remaining [2]: 100.0%
- chemical stability, pH (3.0): percentage of parent remaining [3]: 100.0%
- chemical stability, pH (7.6): percentage of parent remaining [3]: 100.0%
- eAUC20m–6h (AcHz) [4]: BLQ ^d
- % of prodrug remaining at 20 h, human plasma [5]: 40.1%
- eAUC20m–20h in human plasma, prodrug [5]: 1418 ± 824 ng·h/mL
- plasma concentration of AcINH at 20 min [8]: BLQ
- plasma concentration of in vivo released free INH at 20 min [8]: BLQ
- plasma eAUC20m–120m (AcINH) [8]: BLQ ^d
- plasma eAUC20m–120m (INH) [8]: BLQ ^d
- eAUC0–20h in intestinal homogenate, prodrug [10]: 908,764 ng·h/mL
- percentage of prodrug remaining after 20 h of incubation, intestine homogenate [10]: 85%
- concentration at 0.33 h [11]: 148000 ng/mL
- concentration at 1 h [11]: 63200 ng/mL
- concentration at 2 h [11]: 31400 ng/mL
- concentration at 4 h [11]: 1400 ng/mL
- concentration at 6 h [11]: 571 ng/mL
- concentration at 24 h [11]: 208 ng/mL
- plasma concentration of free INH (mean) ([11]; 1 h): BLQ
- plasma concentration of released AcINH (mean) ([11]; 1 h): BLQ
- plasma concentration of free INH (mean) ([11]; 2 h): BLQ
- plasma concentration of released AcINH (mean) ([11]; 2 h): BLQ
- plasma concentration of free INH (mean) ([11]; 4 h): BLQ
- plasma concentration of released AcINH (mean) ([11]; 4 h): BLQ
- plasma concentration of released INA (mean) ([11]; 4 h): BLQ
- plasma concentration of free INH (mean) ([11]; 6 h): BLQ
- plasma concentration of released AcINH (mean) ([11]; 6 h): BLQ
- plasma concentration of released INA (mean) ([11]; 6 h): BLQ
- plasma concentration of free INH (mean) ([11]; 24 h): BLQ
- plasma concentration of released AcINH (mean) ([11]; 24 h): BLQ
- plasma concentration of released INA (mean) ([11]; 24 h): BLQ
- Vd, unchanged prodrug [11]: 0.077 ± 0.004 L/kg
- plasma level of AcHz formed in vivo [11]: BLQ
- logD [6]: -0.2
- % of prodrug remaining at 20 h, mice plasma [7]: 70.5%
- eAUC20m–20h in mice plasma, prodrug [7]: 1650 ± 930 ng·h/mL

Second part, led by results:

- solubility at 24 h ([1]; Tris HCl buffer): 29.3 mg/mL
- chemical stability, DMSO: percentage of parent remaining [2]: 100.0%
- chemical stability, pH (3.0): percentage of parent remaining [3]: 98.17%
- chemical stability, pH (7.6): percentage of parent remaining [3]: 100.0%
- eAUC20m–6h (AcHz) [4]: BLQ ^d
- eAUC20m–20h in human plasma, prodrug [5]: 854 ± 615 ng·h/mL
- logD [6]: 0.9
- % of prodrug remaining at 20 h, mice plasma [7]: 13.2%
- eAUC20m–20h in mice plasma, prodrug [7]: 382 ± 302 ng·h/mL
Compound: CC(C)COC(=O)NNC(=O)c1ccncc1.Cl [prodrug 1f]

- solubility at 24 h ([1]; Tris HCl buffer): 0.4 mg/mL
- eAUC0–20h in stomach homogenate, prodrug [9]: 691,560 ng·h/mL
- percentage of prodrug remaining after 20 h of incubation, stomach homogenate [9]: 29%
- chemical stability, DMSO: percentage of parent remaining [2]: 100.0%
- chemical stability, pH (3.0): percentage of parent remaining [3]: 100.0%
- chemical stability, pH (7.6): percentage of parent remaining [3]: 100.0%
- eAUC20m–6h (AcHz) [4]: BLQ ^d
- eAUC20m–20h in human plasma, prodrug [5]: 465 ± 426 ng·h/mL
- eAUC0–20h in intestinal homogenate, prodrug [10]: 761,596 ng·h/mL
- percentage of prodrug remaining after 20 h of incubation, intestine homogenate [10]: 43%
- concentration at 0.33 h [11]: 6130 ng/mL
- concentration at 1 h [11]: 433 ng/mL
- concentration at 2 h [11]: 409 ng/mL
- concentration at 4 h [11]: 884 ng/mL
- concentration at 6 h [11]: 128 ng/mL
- concentration at 24 h [11]: 120 ng/mL
- plasma concentration of free INH (mean) ([11]; 4 h): BLQ
- plasma concentration of released AcINH (mean) ([11]; 4 h): BLQ
- plasma concentration of released INA (mean) ([11]; 4 h): BLQ
- plasma concentration of free INH (mean) ([11]; 6 h): BLQ
- plasma concentration of released AcINH (mean) ([11]; 6 h): BLQ
- plasma concentration of released INA (mean) ([11]; 6 h): BLQ
- plasma concentration of free INH (mean) ([11]; 24 h): BLQ
- plasma concentration of released AcINH (mean) ([11]; 24 h): BLQ
- plasma concentration of released INA (mean) ([11]; 24 h): BLQ
- Vd, unchanged prodrug [11]: 2.899 ± 0.3 L/kg
- plasma level of AcHz formed in vivo [11]: BLQ
- logD [6]: 1.1
- eAUC20m–20h in mice plasma, prodrug [7]: 87 ± 85 ng·h/mL
Compound: Cl.O=C(NNC(=O)c1ccncc1)OCc1ccccc1 [prodrug 1h]

- solubility at 24 h ([1]; Tris HCl buffer): 111 mg/mL
- chemical stability, DMSO: percentage of parent remaining [2]: 100.0%
- chemical stability, pH (3.0): percentage of parent remaining [3]: 100.0%
- chemical stability, pH (7.6): percentage of parent remaining [3]: 98.3%
- % of prodrug remaining at 20 h, human plasma [5]: 89.1%
- eAUC20m–20h in human plasma, prodrug [5]: 2788 ± 217 ng·h/mL
- plasma concentration of AcINH at 20 min [8]: BLQ
- logD [6]: 0.8
- % of prodrug remaining at 20 h, mice plasma [7]: 63.8%
- eAUC20m–20h in mice plasma, prodrug [7]: 1486 ± 35 ng·h/mL
Compound: CCC(C)OC(=O)NNC(=O)c1ccncc1.Cl (stereo not shown) [prodrug 1i]
- plasma eAUC20m–120m (AcINH) ([8]; 10 mg/kg): BLQ and below the limit of quantification and BLQ ^d

- solubility at 24 h ([1]; Tris HCl buffer): 402 mg/mL
- chemical stability, DMSO: percentage of parent remaining [2]: 100.0%
- chemical stability, pH (3.0): percentage of parent remaining [3]: 96.9%
- chemical stability, pH (7.6): percentage of parent remaining [3]: 100.0%
- eAUC20m–6h (AcHz) [4]: BLQ ^d
- % of prodrug remaining at 20 h, human plasma [5]: significant lability and BLQ
- eAUC20m–20h in human plasma, prodrug [5]: 530 ± 316 ng·h/mL
- logD [6]: 0.2
- % of prodrug remaining at 20 h, mice plasma [7]: highly labile and BLQ
- eAUC20m–20h in mice plasma, prodrug [7]: 168 ± 91 ng·h/mL
Compound: C=CCOC(=O)NNC(=O)c1ccncc1.Cl [prodrug 1g]

Reference: publication PMC12395308 (ACS Central Science, 2025)
